# Data published in ChEMBL document CHEMBL1156617, “Heme activates artemisinin more efficiently than hemin, inorganic iron, or hemoglobin” (Bioorg Med Chem, 2008).
# Calls of active or inactive are those of the source. The calls are words filed in the database; no cut-off is given here.
# How the values were obtained:
# [1] = Binding affinity to oxyhemoglobin in ammonium acetate buffer at pH 8.0 over 24 hrs by spectrophotometry
# [2] = Binding affinity to methemoglobin in phosphate buffer at pH 7.0 over 30 mins by spectrophotometry
# [3] = Binding affinity to oxyhemoglobin in phosphate buffer at pH 7.0 at room temperature over 24 hrs by spectrophotometry
# [4] = Binding affinity to methemoglobin in phosphate buffer at pH 5.0 over 30 mins by spectrophotometry
# [5] = Binding affinity to oxyhemoglobin in phosphate buffer at pH 7.0 at 37 degC over 24 hrs by spectrophotometry
# [6] = Binding affinity to heme in sodium acetate buffer at pH 5.0
# [7] = Binding affinity to hemin in sodium acetate buffer at pH 5.0
# [8] = Binding affinity to heme in ammonium acetate buffer at pH 5.0 at 40 uM in presence of ferrocyanide
SMILES,Activity [1],Activity [2],Activity [3],Activity [4],Activity [5],Activity [6],Activity [7],Activity [8]
C[C@H]1[C@H](OC(=O)CCC(=O)O)O[C@@H]2O[C@@]3(C)CC[C@H]4[C@H](C)CC[C@@H]1[C@@]24OO3,inactive,inactive,inactive,inactive,inactive,–,–,–
C[C@@H]1CC[C@H]2[C@@H](C)C(=O)O[C@@H]3O[C@@]4(C)CC[C@@H]1[C@]32OO4,–,–,–,–,–,Dose-dependent effect,inactive,Active
